From the kinase profiling compilation of Christmann-Franck et al. (2016)

Legend:
Assay in all cases: radiometric filter-binding kinase assay
ABL1 (human) = ABL1 (human) (UniProt P00519)
EIF2AK3 (human) = EIF2AK3 (human) (UniProt Q9NZJ5)
IRAK1 (human) = IRAK1 (human) (UniProt P51617)
MAP2K6 (human) = MAP2K6 (human) (UniProt P52564)
NUAK1 (human) = NUAK1 (human) (UniProt O60285)
[1] = test system: OXSR1 (human), O95747 [T185E]
PRKCG (human) = PRKCG (human) (UniProt P05129)
PTK6 (human) = PTK6 (human) (UniProt Q13882)
STK16 (human) = STK16 (human) (UniProt O75716)
STK33 (human) = STK33 (human) (UniProt Q9BYT3)
TEK (human) = TEK (human) (UniProt Q02763)
TESK1 (human) = TESK1 (human) (UniProt Q15569)
TLK1 (human) = TLK1 (human) (UniProt Q9UKI8)
TSSK1B (human) = TSSK1B (human) (UniProt Q9BXA7)
TTBK1 (human) = TTBK1 (human) (UniProt Q5TCY1)
ZAP70 (human) = ZAP70 (human) (UniProt P43403)
Chain of ZAP70 (human) (P43403 whole entry, looked up): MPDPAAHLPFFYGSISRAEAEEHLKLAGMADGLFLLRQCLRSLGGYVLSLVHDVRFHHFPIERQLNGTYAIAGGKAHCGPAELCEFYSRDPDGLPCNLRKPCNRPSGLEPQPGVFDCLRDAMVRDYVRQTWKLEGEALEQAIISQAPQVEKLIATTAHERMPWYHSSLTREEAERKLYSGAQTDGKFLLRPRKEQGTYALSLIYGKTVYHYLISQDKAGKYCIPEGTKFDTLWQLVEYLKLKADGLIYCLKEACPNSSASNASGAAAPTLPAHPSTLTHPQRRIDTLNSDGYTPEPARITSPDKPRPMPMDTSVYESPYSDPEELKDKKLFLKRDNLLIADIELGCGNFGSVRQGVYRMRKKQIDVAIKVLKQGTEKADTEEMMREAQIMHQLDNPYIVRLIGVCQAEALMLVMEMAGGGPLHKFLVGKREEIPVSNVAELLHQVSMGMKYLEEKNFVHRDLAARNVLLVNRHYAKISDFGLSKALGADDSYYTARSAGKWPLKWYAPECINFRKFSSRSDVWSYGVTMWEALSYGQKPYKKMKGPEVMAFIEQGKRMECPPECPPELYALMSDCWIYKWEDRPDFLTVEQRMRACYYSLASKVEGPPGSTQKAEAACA

Chain of TLK1 (human) (Q9UKI8 whole entry, looked up): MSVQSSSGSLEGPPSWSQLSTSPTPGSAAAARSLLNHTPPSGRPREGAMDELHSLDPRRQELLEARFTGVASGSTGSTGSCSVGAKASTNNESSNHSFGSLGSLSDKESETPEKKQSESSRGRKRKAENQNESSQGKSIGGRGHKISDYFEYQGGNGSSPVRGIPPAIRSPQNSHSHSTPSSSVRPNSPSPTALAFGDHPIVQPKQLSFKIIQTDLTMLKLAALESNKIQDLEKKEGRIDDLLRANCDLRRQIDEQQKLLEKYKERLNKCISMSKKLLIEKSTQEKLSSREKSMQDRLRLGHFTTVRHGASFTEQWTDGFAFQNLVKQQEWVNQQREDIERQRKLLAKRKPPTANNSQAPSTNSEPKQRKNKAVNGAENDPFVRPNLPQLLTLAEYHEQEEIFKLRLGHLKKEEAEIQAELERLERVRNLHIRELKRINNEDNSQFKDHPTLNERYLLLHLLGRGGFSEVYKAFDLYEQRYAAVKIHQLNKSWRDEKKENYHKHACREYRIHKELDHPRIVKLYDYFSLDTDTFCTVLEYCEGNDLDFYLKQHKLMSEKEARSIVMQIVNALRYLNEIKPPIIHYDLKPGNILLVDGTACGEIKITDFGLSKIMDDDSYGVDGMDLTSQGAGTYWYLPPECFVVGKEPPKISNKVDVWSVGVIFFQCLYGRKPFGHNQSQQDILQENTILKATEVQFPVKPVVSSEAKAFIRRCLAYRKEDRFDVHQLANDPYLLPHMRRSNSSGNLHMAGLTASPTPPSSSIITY
Chain of NUAK1 (human) (O60285 whole entry, looked up): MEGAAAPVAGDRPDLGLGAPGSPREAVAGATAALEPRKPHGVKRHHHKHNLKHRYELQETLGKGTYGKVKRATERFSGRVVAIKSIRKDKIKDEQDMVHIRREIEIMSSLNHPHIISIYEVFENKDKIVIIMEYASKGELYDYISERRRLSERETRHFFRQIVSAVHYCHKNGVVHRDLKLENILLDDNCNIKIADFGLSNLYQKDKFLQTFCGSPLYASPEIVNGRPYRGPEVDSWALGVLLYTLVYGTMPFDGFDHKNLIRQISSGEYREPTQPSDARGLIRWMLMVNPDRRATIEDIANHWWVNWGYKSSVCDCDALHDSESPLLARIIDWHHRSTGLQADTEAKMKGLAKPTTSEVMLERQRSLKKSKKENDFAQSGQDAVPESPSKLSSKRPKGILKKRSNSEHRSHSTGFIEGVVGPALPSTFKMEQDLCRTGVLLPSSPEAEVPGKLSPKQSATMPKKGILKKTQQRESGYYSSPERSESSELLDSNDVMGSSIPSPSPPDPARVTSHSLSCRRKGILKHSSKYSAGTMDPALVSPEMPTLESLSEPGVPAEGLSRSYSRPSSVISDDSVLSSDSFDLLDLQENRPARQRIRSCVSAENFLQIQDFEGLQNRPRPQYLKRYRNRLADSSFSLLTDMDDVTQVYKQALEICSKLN
Chain of TEK (human) (Q02763 whole entry, looked up): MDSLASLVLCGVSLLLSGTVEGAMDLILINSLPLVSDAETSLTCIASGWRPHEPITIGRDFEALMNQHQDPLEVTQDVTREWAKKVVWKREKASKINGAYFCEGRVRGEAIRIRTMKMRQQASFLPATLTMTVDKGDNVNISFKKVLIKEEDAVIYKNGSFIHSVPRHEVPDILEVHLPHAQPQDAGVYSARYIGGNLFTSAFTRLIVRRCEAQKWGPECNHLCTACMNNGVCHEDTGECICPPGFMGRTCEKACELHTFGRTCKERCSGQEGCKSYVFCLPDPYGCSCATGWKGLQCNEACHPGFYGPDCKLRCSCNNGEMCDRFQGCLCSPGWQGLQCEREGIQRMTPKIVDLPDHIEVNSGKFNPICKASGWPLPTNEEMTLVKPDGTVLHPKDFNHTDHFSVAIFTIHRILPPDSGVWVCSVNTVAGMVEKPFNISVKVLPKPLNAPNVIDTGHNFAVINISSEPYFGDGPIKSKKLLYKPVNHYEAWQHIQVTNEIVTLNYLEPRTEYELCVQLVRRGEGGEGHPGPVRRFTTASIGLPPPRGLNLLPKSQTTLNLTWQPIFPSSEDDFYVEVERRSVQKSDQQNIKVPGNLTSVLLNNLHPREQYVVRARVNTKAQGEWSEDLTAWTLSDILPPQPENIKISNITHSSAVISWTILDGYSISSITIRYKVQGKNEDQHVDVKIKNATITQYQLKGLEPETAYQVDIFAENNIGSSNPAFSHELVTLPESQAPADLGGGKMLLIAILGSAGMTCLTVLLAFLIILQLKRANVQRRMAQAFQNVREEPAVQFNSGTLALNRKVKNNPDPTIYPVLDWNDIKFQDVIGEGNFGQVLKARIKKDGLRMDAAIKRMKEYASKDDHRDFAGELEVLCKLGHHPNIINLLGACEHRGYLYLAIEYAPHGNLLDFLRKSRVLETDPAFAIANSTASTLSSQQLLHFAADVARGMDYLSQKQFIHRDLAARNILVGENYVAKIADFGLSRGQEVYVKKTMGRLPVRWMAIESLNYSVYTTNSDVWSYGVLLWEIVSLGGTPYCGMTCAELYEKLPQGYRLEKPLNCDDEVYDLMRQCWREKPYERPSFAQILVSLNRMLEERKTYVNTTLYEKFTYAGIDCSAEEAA
Chain of MAP2K6 (human) (P52564 whole entry, looked up): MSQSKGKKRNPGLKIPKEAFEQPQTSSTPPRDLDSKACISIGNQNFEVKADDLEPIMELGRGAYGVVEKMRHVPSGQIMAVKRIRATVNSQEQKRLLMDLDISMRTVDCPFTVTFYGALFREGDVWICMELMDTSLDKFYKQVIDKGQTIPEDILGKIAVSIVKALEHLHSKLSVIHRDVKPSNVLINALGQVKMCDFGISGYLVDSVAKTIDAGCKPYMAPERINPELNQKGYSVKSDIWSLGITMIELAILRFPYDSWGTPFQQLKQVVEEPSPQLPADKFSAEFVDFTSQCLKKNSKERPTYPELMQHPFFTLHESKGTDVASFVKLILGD
Chain of STK33 (human) (Q9BYT3 whole entry, looked up): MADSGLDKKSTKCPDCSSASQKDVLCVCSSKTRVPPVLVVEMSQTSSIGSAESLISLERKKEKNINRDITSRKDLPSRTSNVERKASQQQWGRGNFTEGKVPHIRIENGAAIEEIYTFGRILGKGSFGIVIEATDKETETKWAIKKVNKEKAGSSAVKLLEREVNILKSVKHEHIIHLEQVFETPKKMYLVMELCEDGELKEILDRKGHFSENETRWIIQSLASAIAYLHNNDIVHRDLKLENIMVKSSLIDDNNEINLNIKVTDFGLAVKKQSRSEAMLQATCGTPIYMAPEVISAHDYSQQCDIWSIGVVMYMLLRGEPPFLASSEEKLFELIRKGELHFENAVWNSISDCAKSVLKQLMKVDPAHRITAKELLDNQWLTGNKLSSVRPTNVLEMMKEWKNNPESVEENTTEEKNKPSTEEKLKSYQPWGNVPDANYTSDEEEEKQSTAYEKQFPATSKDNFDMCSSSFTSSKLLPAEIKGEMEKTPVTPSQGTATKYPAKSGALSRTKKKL
Chain of STK16 (human) (O75716 whole entry, looked up): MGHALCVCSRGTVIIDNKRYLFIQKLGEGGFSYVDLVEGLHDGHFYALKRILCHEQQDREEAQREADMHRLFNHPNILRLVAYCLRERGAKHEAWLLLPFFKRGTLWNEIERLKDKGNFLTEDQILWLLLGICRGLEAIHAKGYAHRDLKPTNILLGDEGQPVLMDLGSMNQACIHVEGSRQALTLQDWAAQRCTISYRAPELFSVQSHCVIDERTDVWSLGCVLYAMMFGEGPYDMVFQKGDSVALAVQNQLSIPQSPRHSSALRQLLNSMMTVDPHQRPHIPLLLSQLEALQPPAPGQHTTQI

O=C(N[C@@H](COc1ccc2[nH]c(=O)[nH]c2c1)c1ccccc1)c1cccn(Cc2ccc(F)c(F)c2)c1=O
residual activity (ABL1 (human); compound 0.1 µM): 106% | residual activity (ABL1 (human); compound 1.0 µM): 105% | residual activity (ABL1 (human); compound 10.0 µM): 98% | residual activity (EIF2AK3 (human); compound 0.1 µM): 107% | residual activity (EIF2AK3 (human); compound 1.0 µM): 104% | residual activity (EIF2AK3 (human); compound 10.0 µM): 96% | residual activity (IRAK1 (human); compound 0.1 µM): 117% | residual activity (IRAK1 (human); compound 1.0 µM): 118% | residual activity (IRAK1 (human); compound 10.0 µM): 108% | residual activity (MAP2K6 (human); compound 0.1 µM): 94% | residual activity (MAP2K6 (human); compound 1.0 µM): 89% | residual activity (MAP2K6 (human); compound 10.0 µM): 108% | residual activity (NUAK1 (human); compound 0.1 µM): 115% | residual activity (NUAK1 (human); compound 1.0 µM): 107% | residual activity (NUAK1 (human); compound 10.0 µM): 98% | residual activity ([1]; compound 0.1 µM): 97% | residual activity ([1]; compound 1.0 µM): 96% | residual activity ([1]; compound 10.0 µM): 83% | residual activity (PRKCG (human); compound 0.1 µM): 91% | residual activity (PRKCG (human); compound 1.0 µM): 103% | residual activity (PTK6 (human); compound 0.1 µM): 120% | residual activity (PTK6 (human); compound 1.0 µM): 129% | residual activity (PTK6 (human); compound 10.0 µM): 119% | residual activity (STK16 (human); compound 0.1 µM): 101% | residual activity (STK16 (human); compound 1.0 µM): 118% | residual activity (STK16 (human); compound 10.0 µM): 106% | residual activity (STK33 (human); compound 0.1 µM): 92% | residual activity (STK33 (human); compound 1.0 µM): 107% | residual activity (STK33 (human); compound 10.0 µM): 79% | residual activity (TEK (human); compound 0.1 µM): 104% | residual activity (TEK (human); compound 1.0 µM): 100% | residual activity (TEK (human); compound 10.0 µM): 96% | residual activity (TESK1 (human); compound 0.1 µM): 98% | residual activity (TESK1 (human); compound 1.0 µM): 88% | residual activity (TESK1 (human); compound 10.0 µM): 107% | residual activity (TLK1 (human); compound 0.1 µM): 97% | residual activity (TLK1 (human); compound 1.0 µM): 103% | residual activity (TLK1 (human); compound 10.0 µM): 99% | residual activity (TSSK1B (human); compound 0.1 µM): 93% | residual activity (TSSK1B (human); compound 1.0 µM): 103% | residual activity (TSSK1B (human); compound 10.0 µM): 86% | residual activity (TTBK1 (human); compound 0.1 µM): 101% | residual activity (TTBK1 (human); compound 1.0 µM): 110% | residual activity (TTBK1 (human); compound 10.0 µM): 106% | residual activity (ZAP70 (human); compound 0.1 µM): 102% | residual activity (ZAP70 (human); compound 1.0 µM): 106%

O=C(NOC[C@H](O)CO)c1ccc(F)c(F)c1Nc1ccc(I)cc1Cl
residual activity (ABL1 (human); compound 1.0 µM): 103% | residual activity (ABL1 (human); compound 10.0 µM): 98% | residual activity (EIF2AK3 (human); compound 1.0 µM): 96% | residual activity (EIF2AK3 (human); compound 10.0 µM): 105% | residual activity (IRAK1 (human); compound 1.0 µM): 84% | residual activity (IRAK1 (human); compound 10.0 µM): 89% | residual activity (MAP2K6 (human); compound 1.0 µM): 93% | residual activity (MAP2K6 (human); compound 10.0 µM): 102% | residual activity (NUAK1 (human); compound 1.0 µM): 89% | residual activity (NUAK1 (human); compound 10.0 µM): 107% | residual activity ([1]; compound 1.0 µM): 95% | residual activity ([1]; compound 10.0 µM): 93% | residual activity (PRKCG (human); compound 1.0 µM): 91% | residual activity (PRKCG (human); compound 10.0 µM): 99% | residual activity (PTK6 (human); compound 1.0 µM): 115% | residual activity (PTK6 (human); compound 10.0 µM): 121% | residual activity (STK16 (human); compound 1.0 µM): 85% | residual activity (STK16 (human); compound 10.0 µM): 101% | residual activity (STK33 (human); compound 10.0 µM): 107% | residual activity (TEK (human); compound 10.0 µM): 96% | residual activity (TLK1 (human); compound 1.0 µM): 96% | residual activity (TLK1 (human); compound 10.0 µM): 104% | residual activity (ZAP70 (human); compound 1.0 µM): 84% | residual activity (ZAP70 (human); compound 10.0 µM): 100%

NC(=O)c1cc(-c2ccnc(NC3CCCCC3)c2)nc(N2CCNCC2)c1
residual activity (ABL1 (human); compound 0.1 µM): 102% | residual activity (ABL1 (human); compound 1.0 µM): 112% | residual activity (ABL1 (human); compound 10.0 µM): 100% | residual activity (EIF2AK3 (human); compound 0.1 µM): 108% | residual activity (EIF2AK3 (human); compound 1.0 µM): 101% | residual activity (EIF2AK3 (human); compound 10.0 µM): 97% | residual activity (IRAK1 (human); compound 0.1 µM): 92% | residual activity (IRAK1 (human); compound 10.0 µM): 87% | residual activity (MAP2K6 (human); compound 0.1 µM): 92% | residual activity (MAP2K6 (human); compound 1.0 µM): 29% | residual activity (MAP2K6 (human); compound 10.0 µM): 16% | residual activity (NUAK1 (human); compound 1.0 µM): 17% | residual activity (NUAK1 (human); compound 10.0 µM): 32% | residual activity ([1]; compound 0.1 µM): 98% | residual activity ([1]; compound 1.0 µM): 104% | residual activity ([1]; compound 10.0 µM): 73% | residual activity (PRKCG (human); compound 0.1 µM): 106% | residual activity (PRKCG (human); compound 1.0 µM): 103% | residual activity (PRKCG (human); compound 10.0 µM): 115% | residual activity (PTK6 (human); compound 0.1 µM): 114% | residual activity (PTK6 (human); compound 1.0 µM): 124% | residual activity (PTK6 (human); compound 10.0 µM): 103% | residual activity (STK16 (human); compound 0.1 µM): 100% | residual activity (STK16 (human); compound 1.0 µM): 93% | residual activity (STK16 (human); compound 10.0 µM): 84% | residual activity (STK33 (human); compound 0.1 µM): 103% | residual activity (STK33 (human); compound 10.0 µM): 66% | residual activity (TEK (human); compound 0.1 µM): 101% | residual activity (TEK (human); compound 1.0 µM): 111% | residual activity (TEK (human); compound 10.0 µM): 84% | residual activity (TESK1 (human); compound 0.1 µM): 99% | residual activity (TESK1 (human); compound 1.0 µM): 102% | residual activity (TESK1 (human); compound 10.0 µM): 93% | residual activity (TLK1 (human); compound 0.1 µM): 91% | residual activity (TLK1 (human); compound 1.0 µM): 107% | residual activity (TLK1 (human); compound 10.0 µM): 90% | residual activity (TSSK1B (human); compound 0.1 µM): 84% | residual activity (TSSK1B (human); compound 1.0 µM): 56% | residual activity (TSSK1B (human); compound 10.0 µM): 12% | residual activity (TTBK1 (human); compound 0.1 µM): 93% | residual activity (TTBK1 (human); compound 10.0 µM): 93% | residual activity (ZAP70 (human); compound 0.1 µM): 108% | residual activity (ZAP70 (human); compound 1.0 µM): 114% | residual activity (ZAP70 (human); compound 10.0 µM): 109%

COc1ccc(-n2ncc3cnc(Nc4cc(OC)c(OC)c(OCCCN5CCN(C)CC5)c4)nc32)cc1
residual activity (ABL1 (human); compound 0.1 µM): 31% | residual activity (ABL1 (human); compound 1.0 µM): 7% | residual activity (EIF2AK3 (human); compound 1.0 µM): 31% | residual activity (IRAK1 (human); compound 0.1 µM): 19% | residual activity (IRAK1 (human); compound 1.0 µM): 5% | residual activity (MAP2K6 (human); compound 0.1 µM): 99% | residual activity (MAP2K6 (human); compound 1.0 µM): 75% | residual activity (NUAK1 (human); compound 0.1 µM): 16% | residual activity (NUAK1 (human); compound 1.0 µM): 13% | residual activity ([1]; compound 0.1 µM): 101% | residual activity ([1]; compound 1.0 µM): 71% | residual activity (PRKCG (human); compound 0.1 µM): 117% | residual activity (PRKCG (human); compound 1.0 µM): 71% | residual activity (PTK6 (human); compound 0.1 µM): 46% | residual activity (PTK6 (human); compound 1.0 µM): 6% | residual activity (STK16 (human); compound 0.1 µM): 101% | residual activity (STK16 (human); compound 1.0 µM): 42% | residual activity (STK33 (human); compound 0.1 µM): 30% | residual activity (STK33 (human); compound 1.0 µM): 23% | residual activity (TEK (human); compound 0.1 µM): 60% | residual activity (TEK (human); compound 1.0 µM): 11% | residual activity (TESK1 (human); compound 0.1 µM): 59% | residual activity (TESK1 (human); compound 1.0 µM): 24% | residual activity (TLK1 (human); compound 0.1 µM): 79% | residual activity (TLK1 (human); compound 1.0 µM): 39% | residual activity (TSSK1B (human); compound 0.1 µM): 31% | residual activity (TSSK1B (human); compound 1.0 µM): 5% | residual activity (TTBK1 (human); compound 0.1 µM): 104% | residual activity (TTBK1 (human); compound 1.0 µM): 102% | residual activity (ZAP70 (human); compound 0.1 µM): 54% | residual activity (ZAP70 (human); compound 1.0 µM): 22%

O=C(Nc1nc2cc(C(F)(F)F)cc(NC3CC3)n2n1)c1cccnc1
residual activity (ABL1 (human); compound 0.01 µM): 95% | residual activity (ABL1 (human); compound 1.0 µM): 97% | residual activity (EIF2AK3 (human); compound 0.01 µM): 109% | residual activity (EIF2AK3 (human); compound 0.1 µM): 117% | residual activity (EIF2AK3 (human); compound 1.0 µM): 104% | residual activity (IRAK1 (human); compound 0.01 µM): 94% | residual activity (IRAK1 (human); compound 0.1 µM): 100% | residual activity (IRAK1 (human); compound 1.0 µM): 89% | residual activity (MAP2K6 (human); compound 0.01 µM): 100% | residual activity (MAP2K6 (human); compound 0.1 µM): 110% | residual activity (MAP2K6 (human); compound 1.0 µM): 85% | residual activity (NUAK1 (human); compound 0.01 µM): 100% | residual activity (NUAK1 (human); compound 0.1 µM): 116% | residual activity (NUAK1 (human); compound 1.0 µM): 98% | residual activity ([1]; compound 0.01 µM): 83% | residual activity ([1]; compound 0.1 µM): 114% | residual activity ([1]; compound 1.0 µM): 92% | residual activity (PRKCG (human); compound 0.01 µM): 101% | residual activity (PRKCG (human); compound 0.1 µM): 115% | residual activity (PRKCG (human); compound 1.0 µM): 106% | residual activity (PTK6 (human); compound 0.01 µM): 114% | residual activity (PTK6 (human); compound 0.1 µM): 130% | residual activity (PTK6 (human); compound 1.0 µM): 124% | residual activity (STK16 (human); compound 0.01 µM): 82% | residual activity (STK16 (human); compound 0.1 µM): 96% | residual activity (STK16 (human); compound 1.0 µM): 83% | residual activity (STK33 (human); compound 0.01 µM): 97% | residual activity (STK33 (human); compound 0.1 µM): 106% | residual activity (STK33 (human); compound 1.0 µM): 88% | residual activity (TEK (human); compound 0.01 µM): 94% | residual activity (TEK (human); compound 0.1 µM): 103% | residual activity (TEK (human); compound 1.0 µM): 69% | residual activity (TLK1 (human); compound 0.01 µM): 107% | residual activity (TLK1 (human); compound 0.1 µM): 99% | residual activity (TLK1 (human); compound 1.0 µM): 90% | residual activity (ZAP70 (human); compound 0.01 µM): 76% | residual activity (ZAP70 (human); compound 0.1 µM): 77% | residual activity (ZAP70 (human); compound 1.0 µM): 84%
